In article PMC8151276, “An Integrated Approach toward NanoBRET Tracers for Analysis of GPCR Ligand Engagement” (Molecules, 2021):

Target: T1, HTR2C (Homo sapiens, UniProt P28335)
T1 construct: purchased Promega (in-house HiBiT-GPCR construct library, NanoBRET)
T1 sequence (P28335 33-458): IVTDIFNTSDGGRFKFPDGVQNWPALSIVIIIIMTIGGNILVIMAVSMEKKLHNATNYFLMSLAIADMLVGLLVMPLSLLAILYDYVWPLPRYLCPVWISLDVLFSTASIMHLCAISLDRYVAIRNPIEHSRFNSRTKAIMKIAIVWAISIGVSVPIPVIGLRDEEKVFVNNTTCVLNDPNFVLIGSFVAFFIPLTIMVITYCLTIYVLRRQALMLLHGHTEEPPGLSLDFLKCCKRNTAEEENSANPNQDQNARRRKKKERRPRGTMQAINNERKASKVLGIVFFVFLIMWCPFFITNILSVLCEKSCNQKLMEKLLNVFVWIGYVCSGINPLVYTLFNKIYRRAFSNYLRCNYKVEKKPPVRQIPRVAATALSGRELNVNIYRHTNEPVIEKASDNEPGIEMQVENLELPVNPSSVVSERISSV
Test: NanoBRET screen HiBiT-HTR2C in HEK293
Type: binding
Method: Each tracer candidate was screened across the entire library of HiBiT-GPCR constructs using NanoBRET as the detection modality. As depicted in Figure 4A, the specificity of interactions was evaluated through decrease in BRET due to competitive displacement of a bound tracer by excess parental compound. Each tracer was analyzed for binding to each HiBiT-GPCR fusion in the absence and in the presence of competing parental compound. Briefly, HEK293 cells were transfected with HiBiT-GPCR constructs diluted into promoterless DNA to reduce expression and maximize translocation to the cell surface. Each tracer candidate was then screened at concentrations of 1 μM and 0.1 μM across cells expressing these fusions. Cells were treated for 1.5 h with tracer either alone or in the presence of 20 μM competing parental compound (i.e., control). BRET was measured upon addition of purified LgBiT and subsequent complementation with HiBiT genetically fused to a GPCR. The specificity of interactions was assessed through a decrease in BRET signal due to competitive displacement of the bound tracer. To further gauge the robustness of these interactions, the fold response over the control (i.e., BRETtracer/BRETcontrol) was calculated. We chose a 1.5-fold response, which translates to ≥7-fold signal over noise as the minimal threshold required to score an interaction as positive.
HiBiT-GPCR DNA constructs were diluted in 10 mM Tris pH 8 to a final concentration of 0.01 μg/μL, arrayed in 96-well plates and stored at −20 °C. For transfection, HEK293 cells were suspended in Opti-MEM (without phenol red) supplemented with 2% fetal bovine serum (Seradigm) and 100 units/mL penicillin–streptomycin (Gibco) at a final concentration of 220,000 cells/mL and dispensed into white 96-well plates at 90 μL/well. Subsequent transfections and screens were carried using an Agilent Bravo Automated Liquid Handling Platform. First, the 96-well HiBiT DNA arrays were diluted 25-fold in Opti-MEM (without serum or phenol red) to a final concentration of 0.0004 μg/μL and 20 μL of the diluted DNAs were transferred into new 96-well plates. Next, promoterless carrier DNA (1 μg/μL) was diluted 25-fold (0.04 μg/μL) and then dispensed into the diluted arrays at 20 μL/well. Following brief mixing, Viafect transfection reagent (Promega) diluted 16-fold into Opti-MEM was dispensed into the plates at 40 μL/well. After mixing by pipetting, plates were incubated for 10 min on the pipetting station deck. The DNA-transfection reagent complexes were then added to plates containing cells. To facilitate the screen, 10 μL of DNA-transfection reagent complexes were added in duplicates to the top 4 and bottom 4 rows, resulting in two identical 48-well arrays per plate. Plates with transfected cells were incubated for 18–20 h at 37 °C/5% CO2. A screen of each tracer across the entire library using two different concentrations requires duplicate plates of transfected cells. Depending on the number of tracers being screened, transfections can be scaled up using the same ratios. The next day, for each tracer, four 20× screening solutions in tracer dilution buffer (Promega) were prepared: two duplicates at final concentration of 20 μM and two duplicates at a final concentration of 2 μM. […] The four resulting solutions were diluted 4-fold in Opti-MEM without serum or phenol red to generate 5× solutions (5 µM and 0.5 µM tracer +/− 100 μM competing compound). To screen the library, a BioTek MultiFlo FX liquid dispenser was used to dispense 22.5 µL of tracer solution to the top 4 rows and 22.5 µL tracer + competing compound solution to the 4 bottom rows. Plates were briefly mixed on an orbital shaker and incubated for 1.5 h at room temperature. […] Plates were briefly mixed on an orbital shaker and incubated for 15 min to allow complementation.

SMILES	NanoBRET Fold Response (HTR2C, tracer 0.1μM)	NanoBRET Fold Response (HTR2C, tracer 1μM)	other results
CCOC(=O)c1cc(C#N)c(N2CCC(C(=O)NS(=O)(=O)Cc3ccccc3/C=C/C(=O)NCCNC(=O)CCc3ccc4n3[B-](F)(F)[N+]3=C(c5ccc[nH]5)C=CC3=C4)CC2)nc1C [AZD1283-1-NB590]	–	–	NanoBRET Fold Response (HTR2C, 0.1μM): 0.95; NanoBRET Fold Response (HTR2C, 1μM): 1.04
N#CN/C(=N\CCNC(=O)c1ccc(N)cc1)NCCCOc1cccc(CN2CCCCC2)c1 [Aminopotentidine (unmodified)]	–	–	NanoBRET Fold Response (HTR2C, other tracers/Aminopotentidine (unmodified), 0.1μM): 1.48; NanoBRET Fold Response (HTR2C, other tracers/Aminopotentidine (unmodified), 1μM): 1.66
N#CN=C(NCCCOc1cccc(CN2CCCCC2)c1)NCCNC(=O)CCOCCOCCOCCOCCNC(=O)CCc1ccc2n1[B-](F)(F)[N+]1=C(c3ccc[nH]3)C=CC1=C2 [Aminopotentidine-2-NB590]	1.01	1.04	–
CN(C)CCC=C1c2ccccc2CCc2ccc(C(=O)NCCNC(=O)CCOCCOCCOCCOCCNC(=O)CCc3ccc4n3[B-](F)(F)[N+]3=C(c5ccc[nH]5)C=CC3=C4)cc21 [Amitriptyline-a-2-NB590]	–	–	NanoBRET Fold Response (tracer at 1μM): 1.80
CN(C)CCC=C1c2ccccc2CCc2ccc(C(=O)NCCNC(=O)CCOCCOCCOCCOCCNC(=O)CCc3ccc4n3[B-](F)(F)[N+]3=C(c5ccc[nH]5)C=CC3=C4)cc21 [Amitriptyline-b-2-NB590]	–	–	NanoBRET Fold Response (tracer at 0.1μM, listed as amitriptyline-b-2-NB590): 1.74; NanoBRET Fold Response (tracer at 1μM, listed as amitriptyline-b-2-NB590): 2.18
CN(CCC=C1c2ccccc2CCc2ccccc21)C(=O)CCOCCOCCOCCOCCNC(=O)CCc1ccc2n1[B-](F)(F)[N+]1=C(c3ccc[nH]3)C=CC1=C2 [Amitriptyline-e-2-NB590]	–	–	NanoBRET Fold Response (tracer at 1μM): 1.03
COc1ccc2c(n1)c(CCNC(C)=O)cn2CCNC(=O)CCc1ccc2n1[B-](F)(F)[N+]1=C(c3ccc[nH]3)C=CC1=C2 [Azamelatonin-1-NB590]	–	–	NanoBRET Fold Response (0.1μM tracer): 0.91; NanoBRET Fold Response (1μM tracer): 0.91
COc1ccc2[nH]c(-c3ccc(CNC(=O)CCOCCOCCOCCOCCNC(=O)CCc4ccc5n4[B-](F)(F)[N+]4=C(c6ccc[nH]6)C=CC4=C5)cc3)c(CCNC(C)=O)c2n1 [AzomelatoninICO9-2-NB590]	–	–	NanoBRET Fold Response (0.1μM tracer): 1.02; NanoBRET Fold Response (1μM tracer): 1.10
O=C(CCOCCOCCOCCOCCNC(=O)CCc1ccc2n1[B-](F)(F)[N+]1=C(c3ccc[nH]3)C=CC1=C2)NCCCN1CCN(C2=Nc3cc(Cl)ccc3Nc3ccccc32)CC1 [Clozapine-a-2-NB590]	–	–	NanoBRET Fold Response (HTR2C, 0.1μM tracer): 1.89; NanoBRET Fold Response (HTR2C, 1μM tracer): 3.22
O=C(CCOCCOCCOCCOCCNC(=O)CCc1ccc2n1[B-](F)(F)[N+]1=C(c3ccc[nH]3)C=CC1=C2)NCCCN1CCN(C2=Nc3ccccc3Oc3ccc(Cl)cc32)CC1 [Loxapine-a-2-NB590]	1.60	1.62	–
COc1ccccc1N1CCN(CCCCN2C(=O)c3ccc(CNC(=O)CCOCCOCCOCCOCCNC(=O)CCc4ccc5n4[B-](F)(F)[N+]4=C(c6ccc[nH]6)C=CC4=C5)cc3C2=O)CC1 [NAN-190-2-NB590]	1.00	1.14	–
COc1ccccc1N1CCN(CCCCN2C(=O)c3ccc(CNC(=O)CCOCCNC(=O)c4ccc(CNC(=O)CCc5ccc6n5[B-](F)(F)[N+]5=C(c7ccc[nH]7)C=CC5=C6)cc4)cc3C2=O)CC1 [NAN-190-3-NB590]	1.04	1.06	–
O=C(CCc1ccc2n1[B-](F)(F)[N+]1=C(c3ccc[nH]3)C=CC1=C2)NCc1ccc(C(=O)NCCOCCC(=O)N[C@@H]2CC[C@@]3(O)[C@H]4Cc5ccc(O)c6c5[C@@]3(CCN4CC3CC3)[C@H]2O6)cc1 [Naltrexone-3-NB590]	0.79	1.03	–
Cc1cc2c(s1)Nc1ccccc1N=C2N1CCN(CCCNC(=O)CCOCCOCCOCCOCCNC(=O)CCc2ccc3n2[B-](F)(F)[N+]2=C(c4ccc[nH]4)C=CC2=C3)CC1 [Olanzapine-a-2-NB590]	1.54	1.22	–
O=C(CCc1ccc2n1[B-](F)(F)[N+]1=C(c3ccc[nH]3)C=CC1=C2)NCc1ccc(C(=O)NCCOCCOCCNCC(O)COc2cccc3ccccc23)cc1 (centres unmarked) [Propranolol-3-NB590]	–	–	NanoBRET Fold Response (HTR2C, 0.1μM): 1.22; NanoBRET Fold Response (HTR2C, 1μM): 1.21
O=C(CCc1ccc2n1[B-](F)(F)[N+]1=C(c3ccc[nH]3)C=CC1=C2)NCCOCCOCCNC(=O)OCCOCCN1CCN(C2=Nc3ccccc3Sc3ccccc32)CC1 [Quetiapine-a-2-NB590]	0.99	1.17	–
Cc1nc2n(c(=O)c1CCN1CCC(c3noc4cc(F)ccc34)CC1)CCCC2OC(=O)NCCOCCOCCOCCOCCNC(=O)CCc1ccc2n1[B-](F)(F)[N+]1=C(c3ccc[nH]3)C=CC1=C2 (centres unmarked) [Risperidone-2-NB590]	1.26	2.15	–
CC(C)N(CC[C@H](c1ccccc1)c1cc(CCNC(=O)CCOCCOCCOCCOCCNC(=O)CCc2ccc3n2[B-](F)(F)[N+]2=C(c4ccc[nH]4)C=CC2=C3)ccc1O)C(C)C [Tolterodine-2-NB590]	1.09	1.01	–
CC(C)N(CC[C@H](c1ccccc1)c1cc(CCNC(=O)c2ccc(CNC(=O)CCc3ccc4n3[B-](F)(F)[N+]3=C(c5ccc[nH]5)C=CC3=C4)cc2)ccc1O)C(C)C [Tolterodine-BZ-NB590]	0.86	1.55	–
CCCn1c(=O)c2[nH]c(-c3ccc(OCC(=O)NCCNC(=O)CCOCCNC(=O)c4ccc(CNC(=O)CCc5ccc6n5[B-](F)(F)[N+]5=C(c7ccc[nH]7)C=CC5=C6)cc4)cc3)nc2n(CCC)c1=O [XAC-3-NB590]	1.45	0.88	–
